Source: patent publication US20060106026A1, “4-(4-methylpiperazin-1-ylmethyl)-n-[4-pyridin-3-yl)pyrimidin-2-ylamino)phenyl]-benzamide for treating anaplastic thyroid cancer” (priority 2002, published 2006)
Several values for one entry are separate records, joined by “and”; a condition that tells them apart may be missing. Identical values can stand only once. Like-named read-outs stand apart in the source and are kept apart here.

Assays:
KTC-1 = details: KTC-1, 10 μM of SALT I, 48 hours
Procedure: (§1) For flow cytometry analysis, cells were fixed with 70% ethanol and wash with PBS. After pre-incubation with RNase A (0.1 mg per ml) at room temperature, cells were stained with PI (25 μg per ml). Fluorescence was measured by using FACScan flow cytometer (Becton Dickinson, Mountain View, Calif.). This experiment was performed at least three times.

FRO = details: 10 μM of SALT I, 48 hours
Procedure: as §1

1F3 = details: 1F3, 10 μM of SALT I, 48 hours
Procedure: as §1

[1] = tested on: thyroid cancer cell lines
Procedure: as §1

TPC-1 = details: TPC-1, 10 μM of SALT I, 48 hours
Procedure: as §1

ARO [2] = details: 10 μM of SALT I
Procedure: as §1

1F3 cell line = details: IF3 cells, 10 μM of SALT I (data not shown)
[3] = tested on: cell cycle regulatory proteins (p21cip1, p27kip1, cyclin A, B1, CDC2, cyclin D3)
Excerpt: After transfer onto nitrocellulose membranes (Pall Corporation, Ann Arbor, Mich., USA), blots were probed with the appropriate antibodies. β-actin was used as a loading control. The antibodies used were: anti-p21waf1 (Ab-1, Calbiochem, Darmstardt, Germany), anti-p27-8, Santa Cruz Biotechnology, Santa Cruz, Calif., USA), anti-cyclin A (C88020, BD Biosciences, Boston, Mass., USA), anti-cyclin B1 (C23420, BD Biosciences), anti-CDK1/Cdc2 (C12720, BD Biosciences), anti-cyclin D3 (C28620, BD Biosciences), anti-Phospho-c-ABL (Tyr245, Cell Signaling Technology, Beverly, Mass., USA), anti-c-Abl (24-11, Santa Cruz Biotechnology), anti-c-KIT (C-14, Santa Cruz Biotechnology), anti-PDGFRα (C-20, Santa Cruz Biotechnology), anti-PDGFRβ (P-20, Santa Cruz Biotechnology), anti-ERK1/2 (Cell Signalling Technology), anti-p-ERK (Cell Signalling Technology) and anti-Actin (C-11, Santa Cruz Biotechnology). Detection was performed with an enhanced chemiluminescence kit (ECL, Amersham Life Sciences, Buckinghamshire, UK). Immunoblotting experiments were performed at least twice. […] Since p53 status is likely to have some effect on the level of c-Abl protein, the expression level of c-Abl in 1F3 cells was also measured. […] The cyclin-dependent kinase (CDK) inhibitors, p21^cip1 and p27^kip1, can block CDK activity in the S to G2 as well as in the G1 to S phase transition of the cell cycle. […] The activity of CDKs is dependent, in part, on the relative abundance of cyclin subunits and the presence of CDK inhibitors. Among the cyclins and CDKs, cyclin A, B, and CDC2 are involved in the progression from G2 to M phase.

ARO [4] = assay: Cell growth assay, experiment 1 (cell count kit 48 h; growth curve 5 days); details: for cell number quantified with a cell count kit (Wako), mean: 48 hour-treatment, no SALT I: 0.959
[5] = tested on: Refractory Progressive Thyroid Carcinoma; details: SALT I without any other therapy; rapid growth and invasion during the previous year
Procedure: This clinical study is part of the Phase I/II clinical study which is exploratory in nature.
When any mild adverse effect occurs, the dose is decreased to 200 mg once daily depending on the degree of the adverse effect. […] In principle, where the tumor size is reduced by half, the dose is increased up to 800 mg/day and continued for a maximum of six months. […] No concomitant use of an anticancer drug is permitted in principle. Drugs that relieve other conditions or symptoms may be used concomitantly with caution exercised for their adverse effects.

FRO cells = details: single daily administration of 50 mg/kg over 14 consecutive days, i.p.
Procedure: Mouse xenograft model. All mice were maintained in the Nagasaki University (Nagasaki, Japan) animal facility and all animal experiments described in this study were conducted in accordance with the principles and procedures outlined in the Guide for the Care and Use of Laboratory Animals of the Nagasaki University School of Medicine. Five million FRO cells suspended in RPMI 1640 were injected s.c. into the flanks of 8-week-old female BalB/c nu/nu mice (Charles-River Japan, Tokyo, Japan). Tumor sizes were measured every other day with calipers and tumor volumes were calculated according to the formula: a^2×b×0.4 where a is the smallest diameter and b is the diameter perpendicular to a. […] Mice in the control group received injections of pure water. The body weight feeding behavior and motor activity of each animal were monitored as indicators of general health.
Statistical analysis: Data are presented as mean ±SD unless otherwise specified. Student's t-test and Mann Whitney U test were used for comparison between two groups for parametric and nonparametric data, respectively. A p value <0.05 is considered statistically significant.

For `CS(=O)(=O)O.Cc1ccc(NC(=O)c2ccc(CN3CCN(C)CC3)cc2)cc1Nc1nccc(-c2cccnc2)n1` [SALT I], the “effect on cell cycle (G2/M or S-phase changes)” value (KTC-1) was “No such changes were observed”, the “percentage of cells in S phase” value (KTC-1; DMSO 7.68) was 6.53% and the “percentage of cells in G2-M phase” value (KTC-1; DMSO 20.11) was 18.7%. The “percentage of cells in G1 phase” value (KTC-1; DMSO 72.2) was 74.77%, the “effect on cell cycle (arrest)” value (FRO) was “S-phase arrest” and the “percentage of cells in G2-M phase” value (FRO; DMSO 24.95) was 15% and 14.98%. For the same compound, the “percentage of cells in G1 phase” value (FRO; DMSO 32.16) was 30.91%, the “percentage of cells in S phase” value (FRO; DMSO 43.26) was 54% and 54.11% and the “effect on cell cycle (G2/M or S-phase changes)” value (1F3) was “No such changes were observed”. For the same compound, the “percentage of cells in S phase” value (1F3; DMSO 9.4) was 9.1%, the “percentage of cells in G2-M phase” value (1F3; DMSO 27.3) was 20.4% and the “percentage of cells in G1 phase” value (1F3; DMSO 63.3) was 70.5%. The “DNA fragmentation in the DNA ladder assay” value ([1]; after 48 hours of treatment (data not shown)) was “no DNA fragmentation was detected”, the “apoptotic fraction (sub-G1)” value ([1]; after 48 hours of treatment, in any cell line) was “did not significantly increase” and the “effect on cell cycle (G2/M or S-phase changes)” value (TPC-1) was “No such changes were observed”. The “percentage of cells in S phase” value (TPC-1; DMSO 9.7) was 9.3%, the “percentage of cells in G2-M phase” value (TPC-1; DMSO 22.6) was 13.1% and the “percentage of cells in G1 phase” value (TPC-1; DMSO 67.8) was 77.6%. The “increase of the proportion of cells in G2/M-phase versus DMSO” value (ARO [2]; 48 hours (9.28% vs. 3.78%)) was “increased more then two-fold”, the “percentage of cells in G2-M phase” value (ARO [2]; 48 hours, DMSO 3.8) was 9.28% and 9.3% and the “percentage of cells in S phase” value (ARO [2]; 48 hours, DMSO 19.7) was 13.1%. The “percentage of cells in G1 phase” value (ARO [2]; 48 hours, DMSO 76.6) was 77.6%, the “cell growth curve on a 5 day period” value (1F3 cell line) was “do not change the cell growth” and the “Expression of p2^cip1” value [3] was “markedly increased”. For the same compound, the “Expression of p27^kip1” value [3] was “increased”, the “levels of cyclin A, B1 and CDC2” value ([3]; ARO and FRO cell lines, 10 μM of SALT I, 24 hours) was “reduced” and the “level of cyclin D3” value ([3]; ARO cells, 10 μM of SALT I, 24 hours) was “reduced”. The “Expression of p2^cip1” value ([3]; ARO, KTC-1 and 1F3 cells, 10 μM of SALT I) was “did not change”, the “levels of cyclin A, B1, CDC2 and cyclin D3” value ([3]; KTC-1 and 1F3, 10 μM of SALT I, 24 hours) was “had no effect” and the “growth suppression, dose dependence” value (ARO [4]; ARO (mutant p53), lower than 50 μM, 48 h) was “show growth suppression in SALT I dose dependent manner”. For the same compound, the “cell growth curve on a 5 day period” value (ARO [4]; ARO, 10 μM of SALT I, compared to control cells) was “time-dependent reduction of cell growth”, the cell death (ARO [4]; ARO, 50 μM of SALT I, 48 h) was “died” and the “cell number quantified with a cell count kit (Wako), mean” value (from here on “cell number quantified”) (ARO [4]; ARO, SALT I 1 μM) was 0.785. For the same compound, the “cell number quantified” value (ARO [4]; ARO, SALT I 10 μM) was 0.539, the “cell number quantified” value (ARO [4]; ARO, SALT I 50 μM) was 0.096 and the “tumor growth in first patient (preliminary results)” value [5] was “stopped their growth for 3 months”. For the same compound, the anti-tumor effect (FRO cells) was “strong anti-tumor effect”.
